Values of other authors, collected in US6635288B2, “Composition for suppressing cellular fibrousing and method for preparing an extract from loquat seeds” (Kochi Medical School, priority 2000, dated 2003).

System: rats
Settings: Carter et al., Biochem. Pharmacol. 29, 301 (1980)

Question: With `N#C[C@H](O[C@@H]1O[C@H](CO[C@@H]2O[C@H](CO)[C@@H](O)[C@H](O)[C@H]2O)[C@@H](O)[C@H](O)[C@H]1O)c1ccccc1` [amygdalin] as the compound, how does the lethal dose read?
Answer: 600 mg
